Consider 14 compounds from patent US20120028988A1, “USE OF PYRIDAZINONE COMPOUND FOR CONTROL OF HARMFUL ARTHROPOD PESTS” (SUMITOMO CHEMICAL COMPANY, LIMITED, priority 2009, published 2012).

For data set [1], the system named is Plutella xylostella. Put plainly: whole plant or invertebrate. Type of data set: in vivo. Particulars: 120 h, 500 ppm active ingredient, 20 mL/cup sprayed on Brassicae oleracea, second-stage larvae, 25° C., after 5 days, read-out: mortality of the insects. Here is the method: (§1) The preparation of the present composition obtained by Preparation Example 14 was diluted with water so as to have a concentration of active ingredient of 500 ppm, to prepare a drug solution for test.
The drug solution for test was sprayed at a rate of 20 mL/cup on Brassicae oleracea at the 3 leaf stage planted in a polyethylene cup. After the drug solution dried, leaves and stems were cut out and placed in a 50 mL cup. 5 second-stage larvae of Plutella xylostella were released there, and the lid was closed. This cup was stored at 25° C., and the number of surviving insects was counted after 5 days, and the mortality of the insects was calculated by the following equation.
(§2) Mortality of Insects (%)=(Number of Dead Insects/Number of Test Insects)×100

Data set [2] has as its system Spodoptera litura. Kind of data set: whole plant or invertebrate. Type of data set: in vivo. The conditions noted are these: 144 h, 500 ppm active ingredient, 20 mL/cup sprayed on Brassicae oleracea, fourth-stage larvae, 25° C., after 6 days, read-out: mortality of the insects. The protocol:
as §1
The drug solution for test was sprayed at a rate of 20 mL/cup on Brassicae oleracea at the 5 to 6 leaf stages planted in a polyethylene cup. After the drug solution dried, 10 fourth-stage larvae of Spodoptera litura were released. Brassicae oleracea at the 5 to 6 leaf stage planted in this polyethylene cup was covered with an another polyethylene cup (volume of 400 mL). This was stored at 25° C., and the number of surviving insects was counted after 6 days, then the mortality of the insects was calculated by the following equation.
as §2

In data set [3] the test system is Frankliniella occidentalis. Kind of data set: Test Example 10: spray on cucumber, Frankliniella occidentalis larvae on cut leaves, preventive value. Type of data set: in vivo. Particulars: 500 ppm active ingredient, 10 mL/cup sprayed on cucumber; larvae on cut first true leaves; after 7 days. The protocol:
The drug solution for test was sprayed at a rate of 10 mL/cup on cucumber at the second true leaf-expansion stage planted in a polyethylene cup. After the drug solution dried, the first true leaves were cut out and placed in a polyethylene cup, then 20 larvae of Frankliniella occidentalis were released, and the lid was closed. After 7 days, the number of surviving larvae on the leaves of cucumber was investigated, and the preventive value was calculated by the following equation. Preventive Value (%)={1−(Cb×Tai)/(Cai×Tb)}×100 Here, the letters in the equation represent the following meaning. Cb: Number of Insects in Untreated Area Before Treatment Cai: Number of Insects in Untreated Area at Observation Tb: Number of Insects in Treated Area Before Treatment Tai: Number of Insects in Treated Area at Observation

Data set [4] has as its system Blattalla germanica. Kind of data set: Test Example 6: treated filter paper with sucrose, Blattalla germanica male adults, mortality index. Type of data set: in vivo. Particulars: 500 ppm active ingredient, 0.7 mL on filter paper with sucrose; 2 male adults; after 6 days. The protocol: as §1
A filter paper with a diameter of 5.5 cm was placed in the bottom of a polyethylene cup, then 0.7 mL of the above drug solution for test was added dropwise on the filter paper, and 30 mg of sucrose was uniformly added as a feed. 2 male adults of Blattalla germanica were released in the polyethylene cup, and the lid was closed. The number of dead insects was calculated after 6 days.
The mortality was calculated by the following equation and was evaluated by the indexes of 4: mortality 100%, 2:50%, and 0:0%.
Mortality (%)=(Number of Dead Insects/Number of Test Insects)×100

What is called melting point is the temperature of the solid-liquid transition. With `CCc1c(Cl)c(CC)c(-c2c(O)c(C)nn(C)c2=O)c(CC)c1Cl` [I-a-71, 4-(3,5-dichloro-2,4,6-triethylphenyl)-5-hydroxy-2,6-dimethyl-3(2H)-pyridazinone], the melting point was 266 to 267 °C.

Regarding `CCc1cc(C)c(-c2ccc(Cl)cc2)c(CC)c1-c1c(O)c(C)nn(C)c1=O` [I-a-48, 4-[3-(4-chlorophenyl)-2,6-diethyl-4-methylphenyl)-5-hydroxy-2,6-dimethyl-3(2H)-pyridazinone], the melting point is 248 to 250 °C.

On to `CCc1cc(C)c(Br)c(CC)c1-c1c(O)c(C)nn(C)c1=O` [I-a-47, 4-(3-bromo-2,6-diethyl-4-methylphenyl)-5-hydroxy-2,6-dimethyl-3(2H)-pyridazinone], for which the melting point fell in the range of 235 to 236 °C.

As for `C#Cc1cc(C)cc(C)c1-c1c(O)c(C)nn(C)c1=O` [I-a-44, 4-(2-ethynyl-4,6-dimethylphenyl)-5-hydroxy-2,6-dimethyl-3(2H)-pyridazinone], the melting point is 179 to 181 °C.

Usually mortality stands for the percentage killed. Regarding `Cc1ccc(-c2ccc(Cl)cc2)cc1-c1c(O)cnn(C)c1=O` [I-a-59, 4-[5-(4-chlorophenyl)-2-methylphenyl]-5-hydroxy-2-methyl-3(2H)-pyridazinone], the mortality at 500 ppm in data set [1] and in data set [2] was not below 80% throughout.

Turning to `Cc1ccc(-c2ccc(Cl)cc2)cc1-c1c(O)c(C)nn(C)c1=O` [I-a-40], the preventive value in data set [3] is listed as not below 90%.

Turning to `Cc1ccc(-c2ccc(F)cc2)cc1-c1c(O)c(C)nn(C)c1=O` [I-a-46, 4-[5-(4-fluorophenyl)-2-methylphenyl]-5-hydroxy-2,6-dimethyl-3(2 H)-pyridazinone], the mortality at 500 ppm in data set [1] was not below 80%.

The compound `Cc1ccc(Br)cc1-c1c(O)c(C)nn(C)c1=O` [I-a-45, 4-(5-bromo-2-methylphenyl)-5-hydroxy-2,6-dimethyl-3(2H)-pyridazinone] showed a melting point of 217 to 218 °C.

Regarding `CCc1cc(C)c(F)c(CC)c1-c1c(O)c(C)nn(C)c1=O` [I-a-74, 4-(2,6-diethyl-3-fluoro-4-methylphenyl)-5-hydroxy-2,6-dimethyl-3(2H)-pyridazinone], the melting point lay within 193 to 195 °C.

The compound `CCc1cc(C)c(Br)c(CC)c1-c1c(OC(=O)OC)c(C)nn(C)c1=O` [I-b-50, 4-(3-bromo-2,6-diethyl-4-methylphenyl)-5-methoxycarbonyloxy-2,6-dimethyl-3(2H)-pyridazinone] gave a melting point of 113 to 115 °C.

`CCc1ccccc1-c1c(OC(=O)c2ccccc2)cnn(C)c1=O` [I-b-1, 5-benzoyloxy-4-(2-ethylphenyl)-2-methyl-3(2H)-pyridazinone]: the “index (mortality)” value in data set [4] was 4 (mortality 100%).

For the compound `CCc1cc(CC)c(-c2c(O)c(C)nn(C)c2=O)c(CC)c1I` [I-a-72, 5-hydroxy-2,6-dimethyl-4-(2,4,6-triethyl-3-iodophenyl)-3(2H)-pyridazinone], the melting point fell in the range of 217 to 219 °C.

Turning to `CCc1cc(CC)c(-c2c(O)c(C)nn(C)c2=O)c(CC)c1Cl` [I-a-49, 4-(3-chloro-2,4,6-triethylphenyl)-5-hydroxy-2,6-dimethyl-3(2H)-pyridazinone], the melting point fell in the range of 225 to 226 °C.

In turn, `CCc1cc(CC)c(-c2c(O)c(C)nn(C)c2=O)c(CC)c1Br` [I-a-50, 4-(3-bromo-2,4,6-triethylphenyl)-5-hydroxy-2,6-dimethyl-3(2H)-pyridazinone] had a melting point of 225 to 226 °C.
